Literature values as cited in patent US12018060B2 (HANMI PHARM CO., LTD., priority 2014, dated 2024).

Conditions: after one year of administration

In the case of `CCCCCCCCCCC[C@@H](C[C@@H]1OC(=O)[C@H]1CCCCCC)OC(=O)[C@H](CC(C)C)NC=O` [Orlist®, Orlistat], the body weight decrease is listed as “about 4 kg”.
